Experimental data published in patent US9464042B2, “Biguanide derivative, preparation method thereof, and pharmaceutical composition containing same as an active ingredient” (IMMUNOMET THERAPEUTICS INC., priority 2010, dated 2016).

Tests used:
[1] = test system: HCT116 cells; assay: Inhibition of cancer cell proliferation (MTT, GIC50); format: cell-based; conditions: Homo sapiens, HCT-116, 48 h incubation
Protocol: HCT116 cells derived from human colorectal cancer were used, and a cancer cell proliferation inhibition effect of a biguanide derivative was confirmed by measuring a concentration value (cell growth inhibition concentration, GIC50) at which cell growth was inhibited 50% using a 3-(4,5-dimethylthiazol-2-yl)-2,5-diphenyltetrazolium bromide (MTT) reagent.
First, the HCT116 cells were put on a 96-well plate and incubated for 24 hours to each have cell count of approximately 5000 in a DMEM medium containing 10% fetal bovine serum. Subsequently, to obtain the GIC50 value of each compound, 100 μM (or 200 μM), 25 μM, 6.25 μM, 1.56 μM or 0.39 μM of the compound was treated to each culture medium and then incubated for 48 hours. To confirm living cells after treatment with the compound, MTT was added to each culture medium and further incubated for 3 hours. Generated formazane crystal was dissolved using dimethyl sulfoxide (DMSO), and absorbance of the solution was measured at 560 nm. After the 48-hour incubation, a ratio of […] synthesized in the examples was indicated as cell viability (%) according to each administered concentration. A cell viability curve was plotted using the cell viability (%) and the calculated concentration value (GIC50) of the compound, at which 50% of the growth was inhibited, to confirm an effect on the inhibition of cancer cell proliferation.

[2] = test system: AMPK; assay: AMPK activation (AMPKα immunoassay kit, phospho-Thr172) in MCF7 cells; format: cell-based, human; design: AMPK Activation 50 uM (degree of phosphorylated AMPKα Thr172): unit not given here; conditions: 24 h; for AMPK Activation Fold: 50 uM compound vs 0 (no compound); for AMPK Activation 50 uM (degree of phosphorylated AMPKα Thr172): 50 uM compound
Protocol: The MCF7 cells were put on a 6-well plate and incubated in a DMEM medium containing 10% fetal bovine serum in an incubator to which 5% CO2 was supplied to have a cell count of approximately 5×10^5. 50 μM of the derivatives synthesized in the examples were treated to the each culture medium, and the cells were incubated for 24 hours. Subsequently, the cells were lysed by a method presented in the operation manual of the AMPKα immunoassay kit, and 20 μg of cell lysates were yielded through protein assay.

IC50 [1]	melting point	SMILES	AMPK Activation Fold [2]	AMPK Activation 50 uM (degree of phosphorylated AMPKα Thr172) [2]
> 100 µM	190 to 191 °C	CCCCN/C(=N\C1CCCC1)NC(=N)N.Cl [Example 14, N4-cyclopentyl-N5-butyl biguanide hydrochloride]	3.4	23.2
34.7 µM	193 to 194 °C	CCCCN/C(=N\C12CC3CC(CC(C3)C1)C2)NC(=N)N.Cl [Example 16, N4-adamantyl-N5-butyl biguanide hydrochloride]	6.7	35.3
126 µM	195 to 196 °C	CCCCN/C(=N\c1ccc(Br)cc1)NC(=N)N.Cl [Example 17, N4-(4-bromo)phenyl-N5-butyl biguanide hydrochloride]	3.9	26.3
> 100 µM	147 to 148 °C	CCCCN/C(=N\Cc1ccccc1Cl)NC(=N)N.Cl [Example 19, N4-(2-chloro)benzyl-N5-butyl biguanide hydrochloride]	2.8	19.1
> 100 µM	131 to 133 °C	CCCCN/C(=N\CCc1cccs1)NC(=N)N.Cl [Example 24, N4-(thiophene-2-yl)ethyl-N5-butyl biguanide hydrochloride]	4.4	29.9
> 100 µM	265 to 266 °C	Cl.N=C(N)N/C(=N/Cc1cccnc1)NC1CCCCC1 [Example 26, N4-(pyridine-3-yl)methyl-N5-cyclohexyl biguanide hydrochloride]	2.3	15.4
> 100 µM	183 to 184 °C	Cl.N=C(N)N/C(=N/CCc1ccccc1)NC1CCCCC1 [Example 27, N4-(phenethyl)-N5-cyclohexyl biguanide hydrochloride]	2.7	18.7
> 100 µM	189 to 190 °C	Cl.N=C(N)N/C(=N/Cc1cccnc1)Nc1ccccc1 [Example 28, N4-(pyridine-3-yl)methyl-N5-phenyl biguanide hydrochloride]	1.0	6.7
> 200 µM	166 to 167 °C	Cl.N=C(N)N/C(=N/C1CCCC1)NCc1ccccc1 [Example 30, N4-cyclopentyl-N5-benzyl biguanide hydrochloride]	1.4	7.3
> 100 µM	116 to 117 °C	Cl.N=C(N)N/C(=N/Cc1ccco1)NCc1ccccc1 [Example 32, N4-(furan-2-yl)methyl-N5-benzyl biguanide hydrochloride]	2.5	16.9
18.7 µM	251 to 252 °C	Cl.N=C(N)N/C(=N/C12CC3CC(CC(C3)C1)C2)NCCc1ccccc1 [Example 34, N4-adamantyl-N5-(phenethyl)biguanide hydrochloride]	8.3	20.8
12.4 µM	150 to 151 °C	Cl.N=C(N)N/C(=N/c1ccc(C(F)(F)F)cc1)NCCc1ccccc1 [Example 37, N4-(4-trifluoromethyl)phenyl-N5-(phenethyl)biguanide hydrochloride]	4.1	10.2
> 100 µM	168 to 169 °C	Cl.N=C(N)N/C(=N/Cc1ccc2c(c1)OCO2)NCCc1ccccc1 [Example 39, N4-(benzo[1,3]dioxol-5-yl)methyl-N5-(phenethyl)biguanide hydrochloride]	0.9	6.4
85.6 µM	165 to 166 °C	Cl.N=C(N)N/C(=N/Cc1ccccc1)NCCc1ccccc1 [Example 40, N4-benzyl-N5-(phenethyl)biguanide hydrochloride]	3.9	20.5
42.8 µM	125 to 127 °C	Cl.N=C(N)N/C(=N/Cc1ccc(F)cc1)NCCc1ccccc1 [Example 41, N4-(4-fluoro)benzyl-N5-(phenethyl)biguanide hydrochloride]	4.0	10.1
76 µM	183 to 185 °C	Cl.N=C(N)N/C(=N/CCc1cccs1)NCCc1ccccc1 [Example 42, N4-(thiophene-2-yl)ethyl-N5-(phenethyl)biguanide hydrochloride]	5.9	31.5
70.2 µM	183 to 184 °C	Cl.N=C(N)N/C(=N/CCc1ccccc1)NCCc1ccccc1 [Example 43, N4-N5-di(phenethyl)biguanide hydrochloride]	4.5	23.8
> 100 µM	120 to 122 °C	C/N=C(/NC(=N)N)N(C)Cc1ccccc1.Cl [Example 44, N4-methyl-N5,N5-(benzyl)(methyl)biguanide hydrochloride]	1.9	12.8
> 100 µM	170 to 171 °C	CCCC/N=C(/NC(=N)N)N(Cc1ccccc1)C(C)C.Cl [Example 45, N4-butyl-N5,N5-(benzyl)(isopropyl)biguanide hydrochloride]	1.0	7.1
> 100 µM	144 to 145 °C	CN(CCc1ccccc1)/C(=N\CCc1ccccc1)NC(=N)N.Cl [Example 47, N4-(phenethyl)-N5,N5-(phenethyl)(methyl)biguanide hydrochloride]	1.1	7.2
> 100 µM	228 to 229 °C	CCCCN(CC)/C(=N\CCc1ccccc1)NC(=N)N.Cl [Example 48, N4-(phenethyl)-N5,N5-(butyl)(ethyl)biguanide hydrochloride]	1.0	6.6
> 100 µM	138 to 140 °C	CCCCCCN(CCCCCC)/C(=N\CCc1ccccc1)NC(=N)N.Cl [Example 49, N4-(phenethyl)-N5,N5-dihexyl biguanide hydrochloride]	5.2	35.2
59.1 µM	184 to 185 °C	CCCCN(Cc1ccccc1)/C(=N\CCc1ccccc1)NC(=N)N.Cl [Example 50, N4-(phenethyl)-N5,N5-(butyl)(benzyl)biguanide hydrochloride]	4.0	21.4
